Experiments:
Assay in all cases: relative viability (nuclei count vs DMSO), 5 days (fraction); higher = more cells survive
[1] = compound: C[C@@H](Oc1cc(-c2cnn(C3CCNCC3)c2)cnc1N)c1c(Cl)ccc(F)c1Cl [Crizotinib] + CC1(C)CCC(c2ccc(Cl)cc2)=C(CN2CCN(c3ccc(C(=O)NS(=O)(=O)c4ccc(N[C@H](CCN5CCOCC5)CSc5ccccc5)c(S(=O)(=O)C(F)(F)F)c4)cc3)CC2)C1 [Navitoclax] (partner 0.5 µM)
In short: (§1)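 Cells from lung cancer lines were seeded into 1536-well plates and, one day later, dosed by pin tool. Treatments were either a single drug or a fixed dose of an anchor drug with five library-drug doses (not always all listed) in √10 steps. After 5 days, nuclei were stained in a one-step fixation (final 0.05% Triton X-100, 1% formaldehyde, 1 ug/ml Hoechst) and counted on 4× images, and relative viability is the treated-to-vehicle nuclei ratio, as the median of duplicate plates.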

[2] = compound: C[C@@H](Oc1cc(-c2cnn(C3CCNCC3)c2)cnc1N)c1c(Cl)ccc(F)c1Cl [Crizotinib] + CCNC(=O)c1noc(-c2cc(C(C)C)c(O)cc2O)c1-c1ccc(CN2CCOCC2)cc1 [Luminespib] (partner 0.01 µM)
In short: as §1

[3] = compound: C[C@@H](Oc1cc(-c2cnn(C3CCNCC3)c2)cnc1N)c1c(Cl)ccc(F)c1Cl [Crizotinib] + COc1cc2c(Oc3ccc(NC(=O)C4(C(=O)Nc5ccc(F)cc5)CC4)cc3F)ccnc2cc1OCCCN1CCOCC1 [Foretinib] (partner 0.25 µM)
In short: as §1

[4] = compound: O=C(c1cc(Cc2n[nH]c(=O)c3ccccc23)ccc1F)N1CCN(C(=O)C2CC2)CC1 [Olaparib] + O=C(CCCCCCC(=O)Nc1ccccc1)NO [Vorinostat] (partner 1 µM)
In short: as §1

HCC-827
relative viability ([1]; first compound 0.01 µM): 0.954 | relative viability ([1]; first compound 0.1 µM): 0.987 | relative viability ([1]; first compound 0.3162 µM): 1.01 | relative viability ([1]; first compound 1 µM): 0.953 | relative viability ([2]; first compound 0.01 µM): 0.542 | relative viability ([2]; first compound 0.03162 µM): 0.651 | relative viability ([2]; first compound 0.1 µM): 0.784 | relative viability ([2]; first compound 0.3162 µM): 0.52 | relative viability ([2]; first compound 1 µM): 0.646 | relative viability ([3]; first compound 0.01 µM): 0.959 | relative viability ([3]; first compound 0.03162 µM): 0.967 | relative viability ([3]; first compound 0.1 µM): 0.937 | relative viability ([3]; first compound 0.3162 µM): 0.971 | relative viability ([3]; first compound 1 µM): 1.05 | relative viability ([4]; first compound 0.08 µM): 0.818 | relative viability ([4]; first compound 0.253 µM): 0.723 | relative viability ([4]; first compound 2.53 µM): 0.893 | relative viability ([4]; first compound 8 µM): 0.766

HOP-62
relative viability ([1]; first compound 0.01 µM): 0.994 | relative viability ([1]; first compound 0.03162 µM): 0.996 | relative viability ([1]; first compound 0.1 µM): 0.943 | relative viability ([1]; first compound 1 µM): 0.948 | relative viability ([2]; first compound 0.01 µM): 0.915 | relative viability ([2]; first compound 0.03162 µM): 0.789 | relative viability ([2]; first compound 0.1 µM): 0.995 | relative viability ([2]; first compound 0.3162 µM): 0.855 | relative viability ([2]; first compound 1 µM): 0.902 | relative viability ([3]; first compound 0.01 µM): 1.09 | relative viability ([3]; first compound 0.03162 µM): 1.09 | relative viability ([3]; first compound 0.1 µM): 1.07 | relative viability ([3]; first compound 0.3162 µM): 1.07 | relative viability ([3]; first compound 1 µM): 1.17 | relative viability ([4]; first compound 0.08 µM): 0.757 | relative viability ([4]; first compound 0.253 µM): 0.575 | relative viability ([4]; first compound 2.53 µM): 0.675 | relative viability ([4]; first compound 8 µM): 0.379

IA-LM
relative viability ([1]; first compound 0.01 µM): 0.71 | relative viability ([1]; first compound 0.03162 µM): 0.759 | relative viability ([1]; first compound 0.1 µM): 0.792 | relative viability ([1]; first compound 0.3162 µM): 0.796 | relative viability ([1]; first compound 1 µM): 0.842 | relative viability ([3]; first compound 0.01 µM): 1.07 | relative viability ([3]; first compound 0.03162 µM): 1.05 | relative viability ([3]; first compound 0.1 µM): 1.18 | relative viability ([3]; first compound 0.3162 µM): 1.21 | relative viability ([3]; first compound 1 µM): 1.1 | relative viability ([4]; first compound 0.08 µM): 1.15 | relative viability ([4]; first compound 0.253 µM): 0.921 | relative viability ([4]; first compound 2.53 µM): 0.9 | relative viability ([4]; first compound 8 µM): 0.817

LC-2-ad
relative viability ([1]; first compound 0.01 µM): 0.412 | relative viability ([1]; first compound 0.03162 µM): 0.432 | relative viability ([1]; first compound 0.1 µM): 0.44 | relative viability ([1]; first compound 1 µM): 0.442 | relative viability ([2]; first compound 0.01 µM): 0.953 | relative viability ([2]; first compound 0.03162 µM): 0.943 | relative viability ([2]; first compound 0.1 µM): 1.09 | relative viability ([2]; first compound 0.3162 µM): 0.942 | relative viability ([2]; first compound 1 µM): 0.91 | relative viability ([3]; first compound 0.01 µM): 0.839 | relative viability ([3]; first compound 0.03162 µM): 0.994 | relative viability ([3]; first compound 0.3162 µM): 0.884 | relative viability ([3]; first compound 1 µM): 0.877 | relative viability ([4]; first compound 0.08 µM): 0.749 | relative viability ([4]; first compound 0.253 µM): 0.604 | relative viability ([4]; first compound 2.53 µM): 0.66 | relative viability ([4]; first compound 8 µM): 0.495

LCLC-97TM1
relative viability ([1]; first compound 0.01 µM): 0.318 | relative viability ([1]; first compound 0.03162 µM): 0.39 | relative viability ([1]; first compound 0.1 µM): 0.341 | relative viability ([1]; first compound 0.3162 µM): 0.317 | relative viability ([1]; first compound 1 µM): 0.404 | relative viability ([2]; first compound 0.01 µM): 0.723 | relative viability ([2]; first compound 0.03162 µM): 0.796 | relative viability ([2]; first compound 0.1 µM): 0.67 | relative viability ([2]; first compound 0.3162 µM): 0.714 | relative viability ([2]; first compound 1 µM): 0.799 | relative viability ([3]; first compound 0.01 µM): 0.83 | relative viability ([3]; first compound 0.3162 µM): 0.959 | relative viability ([3]; first compound 1 µM): 0.801 | relative viability ([4]; first compound 0.08 µM): 1.08 | relative viability ([4]; first compound 0.253 µM): 0.63 | relative viability ([4]; first compound 2.53 µM): 0.615 | relative viability ([4]; first compound 8 µM): 0.599

LCLC-103H
relative viability ([2]; first compound 0.01 µM): 0.856 | relative viability ([2]; first compound 0.03162 µM): 0.987 | relative viability ([2]; first compound 0.1 µM): 0.856 | relative viability ([2]; first compound 1 µM): 1.02 | relative viability ([3]; first compound 0.01 µM): 0.75 | relative viability ([3]; first compound 0.03162 µM): 0.732 | relative viability ([3]; first compound 0.1 µM): 0.727 | relative viability ([3]; first compound 0.3162 µM): 0.865 | relative viability ([3]; first compound 1 µM): 0.711 | relative viability ([4]; first compound 0.08 µM): 0.936 | relative viability ([4]; first compound 0.253 µM): 0.762 | relative viability ([4]; first compound 2.53 µM): 0.801 | relative viability ([4]; first compound 8 µM): 0.678

LK-2
relative viability ([1]; first compound 0.01 µM): 0.826 | relative viability ([1]; first compound 0.03162 µM): 0.938 | relative viability ([1]; first compound 0.1 µM): 0.674 | relative viability ([1]; first compound 0.3162 µM): 0.967 | relative viability ([1]; first compound 1 µM): 0.905 | relative viability ([2]; first compound 0.01 µM): 0.173 | relative viability ([2]; first compound 0.03162 µM): 0.188 | relative viability ([2]; first compound 0.1 µM): 0.188 | relative viability ([2]; first compound 1 µM): 0.201 | relative viability ([3]; first compound 0.01 µM): 1.19 | relative viability ([3]; first compound 0.03162 µM): 1.42 | relative viability ([3]; first compound 0.1 µM): 1.2 | relative viability ([3]; first compound 1 µM): 1.27 | relative viability ([4]; first compound 0.08 µM): 0.391 | relative viability ([4]; first compound 0.253 µM): 0.341 | relative viability ([4]; first compound 2.53 µM): 0.345 | relative viability ([4]; first compound 8 µM): 0.268

LOU-NH91
relative viability ([1]; first compound 0.01 µM): 0.68 | relative viability ([1]; first compound 0.03162 µM): 0.708 | relative viability ([1]; first compound 0.1 µM): 0.701 | relative viability ([1]; first compound 0.3162 µM): 0.647 | relative viability ([1]; first compound 1 µM): 0.727 | relative viability ([2]; first compound 0.01 µM): 0.351 | relative viability ([2]; first compound 0.03162 µM): 0.311 | relative viability ([2]; first compound 0.1 µM): 0.346 | relative viability ([2]; first compound 0.3162 µM): 0.34 | relative viability ([2]; first compound 1 µM): 0.345 | relative viability ([3]; first compound 0.01 µM): 0.917 | relative viability ([3]; first compound 0.03162 µM): 0.949 | relative viability ([3]; first compound 0.1 µM): 0.995 | relative viability ([3]; first compound 0.3162 µM): 0.921 | relative viability ([3]; first compound 1 µM): 0.98 | relative viability ([4]; first compound 0.08 µM): 1.17 | relative viability ([4]; first compound 0.253 µM): 0.904 | relative viability ([4]; first compound 2.53 µM): 0.939 | relative viability ([4]; first compound 8 µM): 0.983

LU99A
relative viability ([1]; first compound 0.01 µM): 0.801 | relative viability ([1]; first compound 0.03162 µM): 0.743 | relative viability ([1]; first compound 0.1 µM): 0.826 | relative viability ([1]; first compound 0.3162 µM): 0.721 | relative viability ([1]; first compound 1 µM): 0.786 | relative viability ([2]; first compound 0.01 µM): 0.234 | relative viability ([2]; first compound 0.03162 µM): 0.22 | relative viability ([2]; first compound 0.1 µM): 0.254 | relative viability ([2]; first compound 0.3162 µM): 0.23 | relative viability ([2]; first compound 1 µM): 0.246 | relative viability ([3]; first compound 0.01 µM): 0.74 | relative viability ([3]; first compound 0.03162 µM): 0.781 | relative viability ([3]; first compound 0.1 µM): 0.812 | relative viability ([3]; first compound 0.3162 µM): 0.788 | relative viability ([3]; first compound 1 µM): 0.766 | relative viability ([4]; first compound 0.08 µM): 0.463 | relative viability ([4]; first compound 0.253 µM): 0.397 | relative viability ([4]; first compound 2.53 µM): 0.353 | relative viability ([4]; first compound 8 µM): 0.23

Source: the supplement of paper PMC10307832
